# From paper PMC6413923 (Journal of medicinal chemistry, 2017)
# Read-outs that look alike come from different tables or passages of the source.
# Legend:
# [1] = system: wild-type mice subjected to CLP; conditions: cited from earlier work
# [2] = system: lung myeloperoxidase (MPO); conditions: cited from earlier work
# cytokines and chemokines = conditions: cited from earlier work
# MMP-1 = target: T1, MMP-1 (Homo sapiens, UniProt P03956); conditions: in words; cited from earlier work
# T1 sequence (P03956 100-469): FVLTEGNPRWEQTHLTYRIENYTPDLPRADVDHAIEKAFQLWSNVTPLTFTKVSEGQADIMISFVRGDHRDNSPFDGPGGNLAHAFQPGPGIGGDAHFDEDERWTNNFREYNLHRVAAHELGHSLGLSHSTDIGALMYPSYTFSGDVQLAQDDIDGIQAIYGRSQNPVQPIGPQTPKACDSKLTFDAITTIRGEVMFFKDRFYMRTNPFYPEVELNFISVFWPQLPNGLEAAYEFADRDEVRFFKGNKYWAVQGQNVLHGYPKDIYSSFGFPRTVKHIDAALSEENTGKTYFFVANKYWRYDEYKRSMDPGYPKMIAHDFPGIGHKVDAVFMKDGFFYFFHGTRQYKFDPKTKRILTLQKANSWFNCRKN
# MMP-2 = MMP-2 (Homo sapiens, UniProt P08253); conditions: cited from earlier work; for Ki: read-out: Ki(app) MMP-2
# Chain of MMP-2 (P08253 110-465 limits assumed): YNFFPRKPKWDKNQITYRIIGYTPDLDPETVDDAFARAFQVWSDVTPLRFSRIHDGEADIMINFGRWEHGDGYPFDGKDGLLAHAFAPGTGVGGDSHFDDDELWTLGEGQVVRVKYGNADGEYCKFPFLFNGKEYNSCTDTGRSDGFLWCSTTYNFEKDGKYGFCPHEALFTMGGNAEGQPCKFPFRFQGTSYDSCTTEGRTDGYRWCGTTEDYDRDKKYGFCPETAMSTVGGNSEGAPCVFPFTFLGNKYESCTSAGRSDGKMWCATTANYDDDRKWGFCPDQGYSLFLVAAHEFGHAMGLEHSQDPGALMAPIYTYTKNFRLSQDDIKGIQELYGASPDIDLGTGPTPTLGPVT
# MMP-9 = MMP-9 (Homo sapiens, UniProt P14780); conditions: cited from earlier work; for Ki: read-out: Ki(app) MMP-9
# Chain of MMP-9 (P14780 107-444 limits assumed): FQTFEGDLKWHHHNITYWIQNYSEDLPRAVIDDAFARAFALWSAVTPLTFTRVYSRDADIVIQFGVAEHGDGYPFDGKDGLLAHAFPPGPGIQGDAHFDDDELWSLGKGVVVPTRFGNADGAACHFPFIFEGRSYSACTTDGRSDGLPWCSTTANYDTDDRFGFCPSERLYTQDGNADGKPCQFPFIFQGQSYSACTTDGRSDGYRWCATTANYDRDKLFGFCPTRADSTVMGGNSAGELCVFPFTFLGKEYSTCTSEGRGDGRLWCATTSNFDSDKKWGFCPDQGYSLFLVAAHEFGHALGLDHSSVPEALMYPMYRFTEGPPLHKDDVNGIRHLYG
# collagenolytic MMPs = conditions: in words, cited from earlier work
# MT1-MMP = MT1-MMP (Homo sapiens, UniProt P50281); conditions: cited from earlier work
# CD thermal transition = format: physicochemical; conditions: 25 °C, from thermal transition at 225 nm
# [3] = first generation THPI; cited from earlier work
compound,measurement,setting,value
"COc1ccc(S(=O)(=O)N2Cc3ccccc3C[C@@H]2C(=O)NO)cc1 [(3R)-(+) - [2-(4-methoxy-benzenesulfonyl)-1,2,3,4-tetrahydroisoquinoline-3-hydroxamate]]",survival of CLP mice,[1],improved survival
same,whole lung MPO activity in CLP mice,[2],reduced whole lung MPO activity
same,IL-1β in CLP mice,cytokines and chemokines,significantly reduced
same,IL-6 in CLP mice,cytokines and chemokines,significantly reduced
same,MIP-1α in CLP mice,cytokines and chemokines,significantly reduced
same,TNF-α in CLP mice,cytokines and chemokines,significantly reduced
(Gly-Pro-Hyp)4-Gly-mep-Flp-Gly-Pro-Gln-GlyΨ{PO2H-CH2}Leu-Ala-Gly-Gln-Arg-Gly-Ile-Arg-Gly-mep-Flp-(Gly-Pro-Hyp)4-Tyr-NH2 [α1(I-III)GlyΨ{PO2H-CH2}Leu THPI],inhibition of MMP-1,MMP-1,effectively inhibits
same,inhibition of MMP-2,MMP-2; in words,effectively inhibits
same,inhibition of MMP-9,MMP-9; in words,effectively inhibits
same,selectivity toward collagenolytic MMPs,collagenolytic MMPs; first generation,selective toward collagenolytic MMPs
same,inhibition of MMPs,collagenolytic MMPs,low nanomolar range
same,Ki,MT1-MMP; read-out: Ki MT1-MMP,120 nM
(Gly-Pro-Hyp)5-Gly-Arg-Ile-Gly-His~Leu-Arg-Thr-Gln-Gly-Val-Arg-(Gly-Pro-Hyp)5-Tyr-NH2 [HLRT],% folded,CD thermal transition,72%
(Gly-Pro-Hyp)5-Gly-Arg-Ile-Gly-Phe~Leu-Arg-Thr-Gln-Gly-Val-Arg-(Gly-Pro-Hyp)5-Tyr-NH2 [FLRT],% folded,CD thermal transition,79%
(Gly-Pro-Hyp)5-Gly-Arg-Ile-Gly-Phe~Leu-Asp-Pro-Gln-Gly-Val-Arg-(Gly-Pro-Hyp)5-Tyr-NH2 [FLDP],% folded,CD thermal transition,72%
(Gly-Pro-Hyp)6-Gly-Pro-Gln-Gly~Ile-His-Lys-Gln-Arg-Gly-Val-Arg-(Gly-Pro-Hyp)5-NH2 [IHK],% folded,CD thermal transition,83%
(Gly-Pro-Hyp)6-Gly-Pro-Gln-Gly~Ile-Tyr-Phe-Gln-Arg-Gly-Val-Arg-(Gly-Pro-Hyp)5-NH2 [IYF],% folded,CD thermal transition,88%
(Gly-Pro-Hyp)6-Gly-Pro-Gln-Gly~Val-Gln-His-Gln-Arg-Gly-Val-Arg-(Gly-Pro-Hyp)5-NH2 [VQH],% folded,CD thermal transition,87%
(Gly-Pro-Hyp)6-Gly-Pro-Gln-Gly~Val-Ser-Trp-Gln-Arg-Gly-Val-Arg-(Gly-Pro-Hyp)5-NH2 [VSW],% folded,CD thermal transition,92%
C6-(Gly-Pro-Hyp)4-Gly-Pro-Pro-GlyΨ{PO2H-CH2}Val-Val-Gly-Glu-Gln-Gly-Glu-Gln-Gly-Pro-Pro-(Gly-Pro-Hyp)4-NH2 [C6-α1(V)GlyΨ{PO2H-CH2}Val THPI],Ki,MMP-2; 10 °C,4.14 ± 0.47 nM
same,Ki,MMP-2; 37 °C,19.2 ± 0.64 nM
same,inhibition of full-length (82 kDa) MMP-9 versus TIMP-1 resistant (65 kDa) MMP-9,MMP-9; comparison in words,similar
same,Ki,MMP-9; 10 °C,1.76 ± 0.05 nM
same,Ki,MMP-9; 37 °C,1.29 nM
same,inhibition of MMPs,collagenolytic MMPs,low nanomolar range
same,inhibition of MT1-MMP,MT1-MMP,did not inhibit MT1-MMP
same,Tm,[3],25 °C
